The values below come from US20260020586A1, “METHOD OF PREPARING GRANULAR FEED ADDITIVE” (CJ CHEILJEDANG CORPORATION, priority 2020, published 2026).

SMILES strings stand for the structures.

One data set in a line: pH of granules. The conditions noted are these: granules of Table 8 (bubbling tower, different carbon dioxide input times). In kind it is physicochemical.
Data set [1] is described as follows: Degree of agglomeration visually evaluated after storage. In kind it is physicochemical. The note with it: visual score, good: 0 to poor: 5; after 1 week at 40° C. and 60% relative humidity.

In the case of `Cl.NCCCC[C@H](N)C(=O)O` [Comparative Example 7, L-Lysine hydrochloride], the pH in “pH of granules” came to 5.8. Also, the “Degree of agglomeration (good: 0-poor: 5)” value in data set [1] turned out to be 1.
